Values quoted from earlier work in patent publication US20080181955A1, “Natural dietary supplement and method for enhancing human libido” (priority 2007, published 2008).

Key:
[1] = oral
[2] = tested on: human endothelial NO synthase; details: polyphenolic constituents of red wine
[3] = target: PDE-5 (Homo sapiens, UniProt O76074); details: resveratrol alone
[4] = tested on: nitric oxide (NO); details: resveratrol alone

Compound	eNOS expression [2]	further results
CCCc1nn(C)c2c(=O)[nH]c(-c3cc(S(=O)(=O)N4CCN(C)CC4)ccc3OCC)nc12 [Sildenafil, sildenafil]		half-life [1]: about 4 hours
CN1CC(=O)N2[C@H](c3ccc4c(c3)OCO4)c3[nH]c4ccccc4c3C[C@@H]2C1=O [Tadalafil, tadalafil]		half-life [1]: about 17.5 hours
O=C(O)c1ccccc1 [benzoic acid]	enhanced eNOS expression moderately	
O=C(O)/C=C/c1ccc(O)c(O)c1 [caffeic acid]	enhanced eNOS expression moderately	
O=C(O)/C=C/c1ccc(O)cc1 [p-coumaric acid]	enhanced eNOS expression moderately	
Oc1ccc(C=Cc2cc(O)cc(O)c2)cc1 [resveratrol]		effect on PDE-5 [3]: no recognizable effect on PDE-5; release of NO [4]: releases NO
Oc1ccc(/C=C/c2cc(O)cc(O)c2)cc1 [trans-resveratrol]	most efficacious stimulator of eNOS expression	
COc1cc(C(=O)O)ccc1O [vanilla acid]	enhanced eNOS expression moderately	
